Patent publication US11478474B2, “2-(3′-(hydroxymethyl)-1-methyl-5-((5-(2-methyl-4-(oxetan-3-yl)piperazin-1-yl)pyridin-2-yl)amino)-6-oxo-1,6-dihydro-[3,4′-bipyridin]-2′-yl)-7,7-dimethyl-7,8-dihydro-2H-cyclopenta[4,5]pyrrolo[1,2-a]pyrazin-1(6H)-one as a BTK inhibitor” (HUTCHISON MEDIPHARMA LIMITED, priority 2020, dated 2022)
Where two headings read alike, the source gives them in different places.

What was measured:
[1] = Study on in vivo pharmacokinetics in mice; settings: 10 mg/kg
From the text: Example 6 Study on In Vivo Pharmacokinetics in Mice
Solutol HS15 was purchased from BASF, Germany, ethanol (anhydrous) was purchased from Nanjing Chemical Reagent Co., Ltd., physiological saline was purchased from Huayu (Wuxi) Pharmaceutical Co., Ltd., dimethyl sulfoxide (DMSO) and sodium carboxymethyl cellulose 800-1200 (CMC-Na) were purchased from Sinopharm Chemical Reagent Co., Ltd.
Preparation of ethanol/Solutol mixed solution (1:1, v/v): taking an appropriate amount of Solutol HS15 in a centrifuge tube and placing in a 37° C. water bath until dissolved, placing on the bench top to room temperature, taking 1 mL of Solutol in a centrifuge tube containing 1 mL of ethanol and mixing well to obtain the mixed solution.
Taking an appropriate amount of stock solution and placing in a blank centrifuge tube, adding an appropriate amount of ethanol/Solutol mixed solution prepared in advance, vortexing, then adding an appropriate amount of physiological saline, and mixing well until a transparent liquid.
3. Administration to Animals and Sample Collection:
Male ICR mice were purchased from Shanghai Lingchang Biotechnology Co., Ltd. 18 mice were randomly divided into intravenous administration group and intragastric administration group. The mice were fasted overnight before administration. The mice were withheld food but allowed to access water freely within 4 hours after administration, and allowed to freely access food and water after 4 hours. After anesthesia with isoflurane, blood was collected from the retroorbital venous plexus and placing in an centrifuge tube containing anticoagulant, and the centrifuge tube was stored in an box containing wet ice until the plasma was centrifuged.
The plasma samples were pre-treated and then analyzed by liquid chromatography-tandem mass spectrometry (LC-MS/MS), the instrument model was API5500. The analytical chromatographic column was Waters XSELECT HSS T3 C18 column (50×2.1 mm, 2.5 μm). In the mobile phases, deionized water containing 0.1% formic acid and 0.1% acetonitrile was used as the aqueous phase and acetonitrile containing 0.1% formic acid was used as the organic phase. The concentrations of the compound in the samples were determined as follows. Firstly, a standard curve was established, and the peak area ratios of the compound 19 to the internal standard in the standard curve were used as indexes. The theoretical concentrations of compound 19 and the peak area ratios of compound 19 to the internal standard were fitted with a quadratic regression equation to obtain the regression equation. The sample concentrations were calculated by measuring the peak area ratio of the compound of the test sample to the internal standard according to the standard curve.

[2] = tested on: TMD8 subcutaneous xenograft (human diffuse large B-cell lymphoma cells); test: In vivo efficacy in TMD8 subcutaneous xenograft model in nude mice; settings: for Number of animals with CR (Day 21): 8 animals per group; for Tumor volume (mm^3) ± SD Day 0: Day 0, before drug administration; for TGI (%) / Tumor volume (mm^3) ± SD Day 21: Day 21; for RBW (%) (Day 21): relative body weight; for Tumor growth inhibition (TGI %): oral gavage once a day, 21 days after treatment, vs vehicle control
Protocol: Example 7 Evaluation of In Vivo Efficacy of the Compound of the Present Invention in TMD8 Subcutaneous Xenograft Model
Objects: To investigate the anti-tumor activity of compound 19 in TMD8 subcutaneous xenograft model in nude mice.
Methods: Human diffuse large B-cell lymphoma cells TMD8 (acquired under license from Tokyo Medical and Dental University) were cultured in RPMI1640 medium containing 10% fetal bovine serum. 1×10^7 tumor cells suspended in RPMI1640 medium mixed well with Matrigel (purchased from Corning, USA) at 1:1 were implanted subcutaneously on the right flank of each male Balb/c nude mouse (Shanghai Lingchang Biotechnology Co., Ltd.), pretreated with cyclophosphamide (at a dose of 200 mg/kg, intraperitoneal injection 24 h before cell inoculation). […] All drugs were administered by oral gavage, once a day, and the vehicle control group was administered orally with 0.5% hydroxypropyl methylcellulose solution (pH=3).
Tumor volumes (tumor volume=0.5×long diameter×short diameter^2) and body weights of the mice were measured regularly. The tumor volume change and body weight were statistically analyzed, with p<0.05 considered statistically significant, and p<0.01 as extremely statistically significant.
The anti-tumor activity was evaluated by tumor growth inhibition. Tumor growth inhibition (TGI %)=100%×(1−(TVDt (treatment group)−TVD0 (treatment group))/(TVDt (control group)−TVD0 (control group))) Relative body weight (RBW %)=BWDt/BWD0×100%
wherein, TVD0 represents the tumor volume obtained at first measurement, namely, the tumor volume before drug administration, and TVDt represents the tumor volume on the day of measurement; BWD0 represents the body weight of the animal obtained at first measurement, namely, the body weight of the animal before drug administration; BWDt represents the body weight of the animal on the day of measurement.

[3] = tested on: B cell activation in mouse whole blood induced by anti-IgD antibodies; test: In vivo efficacy of the inhibitory effect on BTK target (anti-IgD antibody-induced B cell activation in mice whole blood after in vivo administration)
Protocol: Objects: B cells in mice whole blood were induced and activated by the anti-IgD antibody, and the inhibitory effect of the compound of the present invention on B cell activation in vivo was studied, so as to determine the inhibitory effect of the compound of the present invention on the BTK target in vivo.
Methods: C57BL/6 mice (female, 18-20 g, purchased from Shanghai Lingchang Biotechnology Co., Ltd.) were grouped according to Table 2.
The animals of each group were administered, then were placed in CO2 for anesthesia at designated time points, blood samples were taken from […] via retro-orbital bleeding, and heparin was used for anticoagulation; 90 μL of whole blood was taken from mice of each group, and added to a 96 well culture plate, and anti-mouse IgD antibody (BIO-RAD, Cat #MCA4693) was added to each well to a final concentration of 0.01 μg/μL (respectively for the each drug-treated group and anti-IgD antibody-inducted vehicle group); in addition, 90 μL of whole blood of mice in the vehicle group was taken and added to the 96-well culture plate, and PBS (phosphate buffer, GIBCO, Cat #C20012500BT) was added to each well to a final concentration of 0.01 μg/μL (namely, the vehicle control group); Each group was mixed well and incubated in a 37° C./5% CO2 incubator for 4 hours. In addition, the blood of mice in the drug-treated group was centrifuged to separate plasma for blood concentration analysis.
Calculation for B Cell Activation Ratio: B cell activation ratio=percentage of CD69+CD19+double positive B cells/percentage of CD19+single positive B cells
Calculation for Inhibition Ratio: Inhibition ratio=(percentage of B cell activation ratio in anti-IgD antibody-induced vehicle group-percentage of B cell activation ratio in drug-treated group)/(percentage of B cell activation ratio in anti-IgD antibody-induced vehicle group-percentage of B cell activation ratio in vehicle control group)×100%
All data are represented by mean±standard error. For the comparison between each drug-treated group and the anti-IgD antibody-induced vehicle group, p value was calculated by Graphpad Prism using one-way ANOVA analysis of variance and Dunnett's test, and for the comparison between each drug-treated group, p value was calculated by using unpaired t test.

[4] = male ICR mice, oral (intragastric) administration, plasma
[5] = male ICR mice, oral (intragastric) administration, plasma, 24 h
[6] = mouse, male ICR mice, oral (intragastric) administration, plasma
[7] = mouse, male ICR mice, oral (intragastric) administration, plasma, read-out: Cmax
[8] = 10 mg/kg oral gavage once a day
[9] = 30 mg/kg oral gavage once a day

Row | Structure (SMILES) | Cmax [1, 4] [ng/mL] | C24 h (plasma concentration at 24 h) [1, 5] [ng/mL] | AUC(0-inf) [1, 6] [ng·h/mL] | half-life [1, 6] [h] | Cmax [1, 7] [ng/mL] | Number of animals with CR (Day 21) [2, 8] | Tumor volume (mm^3) ± SD Day 0 [2, 8] [mm^3] | TGI (%) [2, 8] [%] | Tumor volume (mm^3) ± SD Day 21 [2, 8] [mm^3] | RBW (%) (Day 21) [2, 8] | Tumor growth inhibition (TGI %) ([2]; 10 mg/kg) [%] | further results
1 | C[C@H]1CN(C2COC2)CCN1c1ccc(Nc2cc(-c3ccnc(-n4ccn5c6c(cc5c4=O)CC(C)(C)C6)c3CO)cn(C)c2=O)nc1 [Compound 19] | 3807 | 8.5 | 17800 | 2.7 | 3810 | 0 | 400 ± 41 | 76.5 | 1065 | 111.0 | 76.5 | C8 h (plasma concentration at 8 h) ([1]; male ICR mice, oral (intragastric) administration, plasma, 8 h): 555 ng/mL; plasma exposure (AUC0-∞) relative to the reference GDC-0853 ([1]; mice, oral administration): about 1.7 times; plasma concentration at 8 h relative to GDC-0853 ([1]; mice, oral administration, 8 h): about 3.9 folds; Number of animals with CR (Day 21) [2, 9]: 8; Tumor volume (mm^3) ± SD Day 0 [2, 9]: 396 ± 47 mm^3; TGI (%) [2, 9]: 114%; Tumor volume (mm^3) ± SD Day 21 [2, 9]: 0 mm^3; RBW (%) (Day 21) [2, 9]: 109.8%; Tumor growth inhibition (TGI %) ([2]; 30 mg/kg): 114%; mice with complete tumor regression (CR) ([2]; 30 mg/kg, oral once a day, Day 21, 8 animals per group): 8 mice; B cell activation ratio (the proportion of activated B cells to total B cells) ([3]; 5 mg/kg, 16 h after administration, mice whole blood, anti-IgD antibody, mean±standard error): 8.3 ± 1.2; Inhibition ratio (%) on B cell activation ([3]; 5 mg/kg, 16 hours after administration, mice whole blood, anti-IgD antibody, listed as Compound 19): 80%; Inhibition ratio (%) on B cell activation ([3]; 5 mg/kg, 16 hours after administration, mice whole blood, anti-IgD antibody, listed as compound 19): 80%
2 | C[C@H]1CN(C2COC2)CCN1c1ccc(Nc2cc(-c3ccnc(N4CCn5c(cc6c5CC(C)(C)C6)C4=O)c3CO)cn(C)c2=O)nc1 [GDC-0853, fenebrutinib, reference compound] | 4063 | <2.4 | 10300 | 1.5 | 4060 | 0 | 397 ± 46 | −12.8 | 3585 ± 494 | 115.5 | −12.8 | concentration at 8 h ([1]; mouse, male ICR mice, oral (intragastric) administration, plasma, 8 h, read-out: C8 h (plasma concentration at 8 h)): 143 ng/mL; concentration at 24 h ([1]; mouse, male ICR mice, oral (intragastric) administration, plasma, 24 h, read-out: C24 h (plasma concentration at 24 h)): < 2.4 ng/mL; Inhibition ratio (%) ([3]; 20 mg/kg single oral gavage, 16 h): 9%; B cell activation ratio (the proportion of activated B cells to total B cells) ([3]; 20 mg/kg single oral gavage, 16 h, mean ± standard error): 29.3 ± 6.7; inhibition ratio on B cell activation ([3]; 20 mg/kg, 16 hours after administration, mice whole blood, anti-IgD antibody): 9%
